Laboratory results as given in ChEMBL document CHEMBL5500327, “Targeting insulin-like growth factor 2 mRNA-binding proteins (IGF2BPs) for the treatment of cancer” (Eur J Med Chem, 2024).
Values belong to the compound of their own block, whether it stands above or below them.

Experiments:
[1] = target: Insulin-like growth factor 2 mRNA-binding protein 2 (Homo sapiens, UniProt Q9Y6M1); assay: Binding affinity to Histidine-tagged IMP-2 (unknown origin) assessed as dissociation constant by fluorescence polarization assay
Sequence of Insulin-like growth factor 2 mRNA-binding protein 2 (Q9Y6M1 whole entry): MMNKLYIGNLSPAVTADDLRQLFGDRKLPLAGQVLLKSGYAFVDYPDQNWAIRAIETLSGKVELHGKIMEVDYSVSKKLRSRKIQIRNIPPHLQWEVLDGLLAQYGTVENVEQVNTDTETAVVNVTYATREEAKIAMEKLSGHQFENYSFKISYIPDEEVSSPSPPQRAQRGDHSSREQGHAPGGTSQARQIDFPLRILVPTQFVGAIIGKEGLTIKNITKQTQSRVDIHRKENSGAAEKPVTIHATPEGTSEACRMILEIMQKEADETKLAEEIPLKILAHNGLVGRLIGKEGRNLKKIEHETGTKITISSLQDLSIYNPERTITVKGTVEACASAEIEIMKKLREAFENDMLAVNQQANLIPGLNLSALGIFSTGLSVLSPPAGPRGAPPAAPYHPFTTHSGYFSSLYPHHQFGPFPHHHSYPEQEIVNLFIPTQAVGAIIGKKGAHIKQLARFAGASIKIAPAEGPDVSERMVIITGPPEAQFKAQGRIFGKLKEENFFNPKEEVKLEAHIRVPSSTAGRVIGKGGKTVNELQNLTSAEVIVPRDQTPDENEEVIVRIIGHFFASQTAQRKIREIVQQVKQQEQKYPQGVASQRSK

[2] = target: T1, Insulin-like growth factor 2 mRNA-binding protein 1 (Homo sapiens, UniProt Q9NZI8); assay: Binding affinity to human recombinant IGF2BP1 assessed as dissociation constant by SPR analysis
T1 sequence (Q9NZI8 whole entry): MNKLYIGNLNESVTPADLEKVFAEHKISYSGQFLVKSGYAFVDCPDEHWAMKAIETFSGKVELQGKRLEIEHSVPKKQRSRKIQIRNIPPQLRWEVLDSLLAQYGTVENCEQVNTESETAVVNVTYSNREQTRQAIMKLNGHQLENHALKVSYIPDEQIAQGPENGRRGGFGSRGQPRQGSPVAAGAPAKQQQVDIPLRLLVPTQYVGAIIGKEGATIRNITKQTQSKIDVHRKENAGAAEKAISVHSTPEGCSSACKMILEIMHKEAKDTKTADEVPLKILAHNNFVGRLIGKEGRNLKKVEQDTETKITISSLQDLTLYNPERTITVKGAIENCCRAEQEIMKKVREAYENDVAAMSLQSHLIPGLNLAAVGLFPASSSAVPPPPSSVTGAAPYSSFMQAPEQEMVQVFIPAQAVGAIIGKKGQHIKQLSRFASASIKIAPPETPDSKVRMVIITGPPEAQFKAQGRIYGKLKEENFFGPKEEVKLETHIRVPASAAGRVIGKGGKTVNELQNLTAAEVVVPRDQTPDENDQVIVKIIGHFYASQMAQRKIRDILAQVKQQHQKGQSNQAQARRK

[3] = Cytotoxicity against human Huh-7 cells assessed as reduction in cell viability incubated for 24 hrs by MTT assay
THP-1 = assay: Antiproliferative activity against human THP-1 cells assessed as reduction in cell growth incubated for 24 hrs by MTT assay; conditions: THP-1, 24 h
K562 = assay: Antiproliferative activity against human K562 cells assessed as reduction in cell viability incubated for 24 hrs by MTT assay; conditions: K562, 24 h
[4] = Inhibition of full length IMP-1 (unknown origin) binding to fluorescein labeled 93 nucleotide c-Myc mRNA expressed in Escherichia coli BL21 (DE3) pLysS by FAMA method
HL-60 = assay: Antiproliferative activity against human HL-60 cells assessed as reduction in cell viability incubated for 24 hrs by MTT assay; conditions: HL-60, 24 h
NCI-H1299 = assay: Antiproliferative activity against human NCI-H1299 cells assessed as reduction in cell growth incubated for 24 hrs by MTT assay; conditions: NCI-H1299, 24 h
[5] = target: T1, Insulin-like growth factor 2 mRNA-binding protein 1; assay: Binding affinity to IGF2BP1 (unknown origin) assessed as dissociation constant by MST assay
[6] = target: T1, Insulin-like growth factor 2 mRNA-binding protein 1; assay: Inhibition of full length recombinant IGF2BP1 (unknown origin) by fluorescence polarization assay

IC50 [1]: 65.3 µM
Compound: CCCN(CCc1ccccc1)C(=O)Nc1cc(-c2ccc(Cl)c(Cl)c2)sc1C(=O)O

IC50 [1]: 121 µM
Compound: CCN(Cc1ccccc1)C(=O)Nc1cc(-c2ccc(C(F)(F)F)cc2)sc1C(=O)O

IC50 [1]: 81.3 µM
Compound: O=C(Nc1ccc(OC(F)(F)F)cc1C(=O)O)c1ccc(-c2ccccc2)cc1

The remaining lines, values behind:

Compound: CC(=O)OC(C)(C)/C=C/C(=O)[C@](C)(O)[C@H]1[C@H](O)C[C@@]2(C)[C@@H]3CC=C4[C@@H](C[C@H](O)C(=O)C4(C)C)[C@]3(C)C(=O)C[C@]12C
Kd [2]: 1.2 µM
IC50 at 24 h [3]: 4.1 µM

Compound: Oc1ccc(Cl)cc1/C=N\N/C(=N/N=C/c1cc(Cl)ccc1O)N/N=C/c1cc(Cl)ccc1O
IC50 (THP-1): 0.2 µM

Compound: NC(=O)c1ccccc1/N=C/c1ccc(Br)s1
IC50 (K562): 6.76 µM
IC50 [4]: 5 µM
IC50 (HL-60): 21.6 µM

Compound: O=C(c1ccc(Cn2cc(CO)c3ccccc32)cc1)N1CCN(c2ccc3c(c2)OCO3)CC1
IC50 (NCI-H1299): 0.8 µM
Kd [5]: 1.4 µM

Compound: O=C(c1ccc(-n2cnnn2)cc1)N1CCCC(Nc2ccc3c(c2)OCO3)C1 (configuration not stated)
IC50 [6]: 91.1 µM
